Test results: ChEMBL document CHEMBL1140598, “A review of anti-infective and anti-inflammatory chalcones” (Eur J Med Chem, 2007)
In brackets after ≈: the same amount, converted by molar mass.

Assays:
[1] = Inhibition of Leishmania donovani solubilized fumarate reductase
Plasmodium falciparum [2] = experiment: Antiplasmodial activity against chloroquine-sensitive Plasmodium falciparum Dd2 by [3H]hypoxanthine incorporation; assay type: functional, organism-based
Plasmodium falciparum [3] = experiment: Antiplasmodial activity against chloroquine-sensitive Plasmodium falciparum 3D7 by [3H]hypoxanthine incorporation; assay type: functional, organism-based
Colletotrichum truncatum [4] = experiment: Antifungal activity against Colletotrichum capsici; assay type: functional
Plasmodium falciparum [5] = experiment: Antimalarial activity against chloroquine-resistant Plasmodium falciparum K1 by [3H]hypoxanthine incorporation; assay type: functional, organism-based
[6] = system: Human immunodeficiency virus 1; experiment: Inhibition of HIV1 p24 antigen production in human C8166 lymphocytes; assay type: functional, organism-based; settings: Human immunodeficiency virus 1, C8166
[7] = system: Human immunodeficiency virus 1; experiment: Antiviral activity against HIV1 3B assessed as inhibition of p24 antigen production in human PBMCs; assay type: functional, organism-based; settings: Human immunodeficiency virus 1, 3B
[8] = system: Human immunodeficiency virus 1; experiment: Inhibition of HIV1 reverse transcriptase production in human C8166 lymphocytes; assay type: functional, organism-based; settings: Human immunodeficiency virus 1, C8166
Plasmodium falciparum [9] = experiment: Antiplasmodial activity against multiresistant Plasmodium falciparum Dd2 by [3H]hypoxanthine incorporation; assay type: functional, organism-based
Plasmodium falciparum [10] = experiment: Antiplasmodial activity against chloroquine-sensitive Plasmodium falciparum poW by [3H]hypoxanthine incorporation; assay type: functional, organism-based
Staphylococcus aureus [11] = experiment: Antibacterial activity against methicillin-resistant Staphylococcus aureus; assay type: functional, organism-based
Escherichia coli = experiment: Antibacterial activity against Escherichia coli; assay type: functional
Staphylococcus aureus [12] = experiment: Antibacterial activity against Staphylococcus aureus; assay type: functional, organism-based
Enterococcus faecium = experiment: Antibacterial activity against Enterococcus faecium; assay type: functional
[13] = target: Superoxide dismutase [Fe] (Plasmodium falciparum) (UniProt Q9TW89); experiment: Inhibition of Plasmodium falciparum recombinant superoxide dismutase at 50 uM
Plasmodium falciparum [14] = experiment: Antimalarial activity against chloroquine-resistant Plasmodium falciparum Dd2; assay type: functional, organism-based
Plasmodium falciparum [15] = experiment: Antimalarial activity against chloroquine-sensitive Plasmodium falciparum HB3; assay type: functional, organism-based
Leishmania amazonensis [16] = experiment: Antileishmanial activity against Leishmania amazonensis promastigotes; assay type: functional; settings: read-out: ED50 (the source's name)
Leishmania amazonensis [17] = experiment: Antileishmanial activity against Leishmania amazonensis intracellular amastigotes; assay type: functional; settings: read-out: ED50 (the source's name)
Plasmodium falciparum [18] = experiment: Antiplasmodial activity against chloroquine-sensitive Plasmodium falciparum D6; assay type: functional, organism-based
Plasmodium falciparum [19] = experiment: Antiplasmodial activity against chloroquine-resistant Plasmodium falciparum W2; assay type: functional, organism-based
Leishmania donovani [20] = experiment: Inhibition of Leishmania donovani amastigotes in human monocyte-derived macrophages; assay type: functional, organism-based
Leishmania major = experiment: Growth inhibition of Leishmania major promastigotes assessed as [3H]thymidine incorporation; assay type: functional, organism-based
Candida albicans = experiment: Antifungal activity against Candida albicans; assay type: functional, organism-based
Cryptococcus neoformans = experiment: Antifungal activity against Cryptococcus neoformans; assay type: functional, organism-based
[21] = system: Mycobacterium tuberculosis; experiment: Antibacterial activity against Mycobacterium tuberculosis H37Rv at 12.5 ug/mL; assay type: functional
[22] = system: Cladosporium cladosporioides; experiment: Fungicidal activity against Cladosporium cladosporioides; assay type: functional
Neutrophil = experiment: Superoxide radical scavenging activity in stimulated human neutrophils; assay type: functional, cell-based
[23] = Superoxide radical scavenging activity by hypoxanthine / xanthine oxidase system; assay type: functional
Plasmodium falciparum [24] = experiment: Inhibition of ring to schizont stage maturation in Plasmodium falciparum NF54 at 2 ug/mL; assay type: functional
Diaporthe longicolla = experiment: Antifungal activity against Phomopsis longicolla Hobbs CE117; assay type: functional
Colletotrichum truncatum [25] = experiment: Antifungal activity against Colletotrichum truncatum CE175; assay type: functional, Glomerella truncata
Lactococcus lactis = experiment: Antibacterial activity against Streptococcus lactis; assay type: functional
[26] = system: Geobacillus stearothermophilus; experiment: Antibacterial activity against Bacillus stearothermophilus; assay type: functional
[27] = Inhibition of Leishmania major succinate dehydrogenase in human PBMCs crude mitochondria after 60 mins
[28] = system: Lactiplantibacillus plantarum; experiment: Antibacterial activity against Lactobacillus plantarum; assay type: functional
Clostridium sporogenes = experiment: Antibacterial activity against Clostridium sporogenes; assay type: functional
Bacillus cereus = experiment: Antibacterial activity against Bacillus cereus; assay type: functional
Heyndrickxia coagulans = experiment: Antibacterial activity against Bacillus coagulans; assay type: functional
Staphylococcus aureus [29] = experiment: Antibacterial activity against methicillin-resistant Staphylococcus aureus ST28; assay type: functional
[30] = Inhibition of Leishmania major NADH-dehydrogenase in human PBMCs crude mitochondria after 60 mins
[31] = Inhibition of Leishmania donovani fumarate reductase in after 60 mins
Mycobacterium kansasii = experiment: Antibacterial activity against Mycobacterium kansasii; assay type: functional
Staphylococcus aureus [32] = experiment: Antibacterial activity against methicillin-resistant Staphylococcus aureus K3; assay type: functional
[33] = Inhibition of Leishmania major NADH dehydrogenase
[34] = Inhibition of Leishmania major NADH-cytochrome c reductase
Streptococcus mutans = experiment: Antibacterial activity against […]; assay type: functional
Staphylococcus aureus [35] = experiment: Antibacterial activity against methicillin-resistant Staphylococcus aureus OM505; assay type: functional
Bacillus subtilis = experiment: Antibacterial activity against Bacillus subtilis; assay type: functional
Staphylococcus aureus [36] = experiment: Antibacterial activity against methicillin-resistant Staphylococcus aureus OM481; assay type: functional
Staphylococcus aureus [37] = experiment: Antibacterial activity against methicillin-sensitive Staphylococcus aureus FDA209P; assay type: functional
[38] = Inhibition of Leishmania major succinate dehydrogenase
Mycobacterium xenopi = experiment: Antibacterial activity against Mycobacterium xenopi; assay type: functional
Staphylococcus aureus [39] = experiment: Antibacterial activity against methicillin-sensitive Staphylococcus aureus Smith; assay type: functional
[40] = system: Mycobacterium tuberculosis; experiment: Antibacterial activity against Mycobacterium tuberculosis; assay type: functional
[41] = system: Lactobacillus acidophilus; experiment: Antibacterial activity against Lactobacillus acidophilus; assay type: functional
Helicobacter pylori = experiment: Growth inhibition of Helicobacter […]; assay type: functional
Mycobacterium marinum = experiment: Antibacterial activity against Mycobacterium marinum; assay type: functional
[42] = Inhibition of Leishmania major succinate-cytochrome c reductase
Enterococcus faecalis = experiment: Antibacterial activity against Enterococcus faecalis; assay type: functional
[43] = system: Human immunodeficiency virus; experiment: Antiviral activity against HIV; assay type: functional, organism-based; settings: Human immunodeficiency virus 1
Leishmania donovani [44] = experiment: Antileishmanial activity against Leishmania donovani amastigotes in mouse macrophages at 50 ug/mL; assay type: functional
Leishmania donovani [45] = experiment: Antileishmanial activity against Leishmania donovani promastigotes at 50 ug/mL; assay type: functional

Superoxide dismutase [Fe] (Plasmodium falciparum), sequence (Q9TW89 whole entry): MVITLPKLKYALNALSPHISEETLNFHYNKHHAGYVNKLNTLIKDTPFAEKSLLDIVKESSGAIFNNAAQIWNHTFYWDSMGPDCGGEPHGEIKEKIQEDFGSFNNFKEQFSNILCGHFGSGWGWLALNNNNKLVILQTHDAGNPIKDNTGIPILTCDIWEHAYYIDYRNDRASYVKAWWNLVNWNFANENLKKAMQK

## CCCCOc1ccc(C(=O)/C=C/c2ccc(OC)cc2OC)cc1
[1]
  IC50: 118 µM
Plasmodium falciparum [2]
  IC50: 14.8 µM
Plasmodium falciparum [3]
  IC50: 8.9 µM

## Cc1ccc(/C=C/C(=O)c2ccc(C)cc2)cc1 [4,4'-DIMETHYLCHALCONE]
Colletotrichum truncatum [4]
  MIC: 6.25 µg/mL (≈ 26.4 µM)

## CCc1ccc(/C=C/C(=O)c2ccc(OC)cc2OC)cc1
Plasmodium falciparum [5]
  IC50: 6.5 µM

## COc1cc(O)c(CC=C(C)C)c(O)c1C(=O)/C=C/c1ccc(O)cc1 [XANTHOHUMOL]
[6]
  EC50: 1.28 µg/mL (≈ 3.61 µM)
[7]
  EC50: 20.7 µg/mL (≈ 58.5 µM)
[8]
  EC50: 0.5 µg/mL (≈ 1.41 µM)
Plasmodium falciparum [9]
  IC50: 24 µM
Plasmodium falciparum [10]
  IC50: 8.2 µM

## CN(C)c1ccc(/C=C/C(=O)c2ccc(O)cc2)cc1
Plasmodium falciparum [5]
  IC50: 20 µM

## Cc1cc(C)cc(-c2ccc(N3CCNCC3)c(/C=C/C(=O)c3cccc(NCCN(C)C)c3)c2)c1
Staphylococcus aureus [11]
  MIC: 2 µM (≈ 0.965 µg/mL)
Escherichia coli
  MIC: 5 µM (≈ 2.41 µg/mL)
Staphylococcus aureus [12]
  MIC: 2 µM
Enterococcus faecium
  MIC: 5 µM

## CC(C)(C)c1ccc(C(=O)/C=C/c2ccc(Br)cc2)cc1
[13]
  inhibition: 83%
Plasmodium falciparum [14]
  IC50: 27 µM
Plasmodium falciparum [15]
  IC50: 37 µM

## COc1cc(O)c(C(=O)/C=C/c2ccccc2)c(O)c1
Leishmania amazonensis [16]
  EC50: 0.5 µg/mL (≈ 1.85 µM)
Leishmania amazonensis [17]
  EC50: 24 µg/mL (≈ 88.8 µM)

## O=C(/C=C/c1ccc(Cl)c(Cl)c1)c1ccc(O)cc1
Plasmodium falciparum [5]
  IC50: 20 µM

## CC(C)=CCc1cc(/C=C/C(=O)c2ccc(O)cc2O)cc(O)c1O [5'-PRENYLBUTEIN]
Plasmodium falciparum [18]
  IC50: 10.3 µM
Plasmodium falciparum [19]
  IC50: 10.3 µM

## C=CCOc1ccc(C(=O)/C=C/c2ccc(OC)cc2OC)cc1
[1]
  IC50: 153 µM
Leishmania donovani [20]
  IC50: 650 nM
Leishmania major
  IC50: 4 µM

## COc1cc(/C=C/C(=O)c2ccc(O)cc2O)ccc1O [HOMOBUTEIN]
Plasmodium falciparum [18]
  IC50: 10.3 µM
Plasmodium falciparum [19]
  IC50: 10.3 µM

## COc1ccc(/C=C/C(=O)c2ccc(O)cc2)c(OC)c1
Leishmania donovani [20]
  IC50: 650 nM
Leishmania major
  IC50: 4 µM

## COc1cc(O)c(C(=O)CCc2ccc(O)cc2)c(O)c1 [ASEBOGENIN]
Staphylococcus aureus [11]
  IC50: 4.5 µg/mL (≈ 15.6 µM)
Staphylococcus aureus [12]
  IC50: 10 µg/mL (≈ 34.7 µM)

## C=C(C)C(O)Cc1c(O)ccc(C(=O)/C=C/c2ccc(O)cc2)c1O (centres undefined)
Candida albicans
  IC50: 15 µg/mL (≈ 44.1 µM)
Cryptococcus neoformans
  IC50: 7 µg/mL (≈ 20.6 µM)

## O=C(/C=C/c1ccccc1)c1ccc(Cl)cc1O
[21]
  inhibition at 12.5 µg/mL: 89%

## O=C(/C=C/c1ccccc1)c1ccccc1O [2'-HYDROXYCHALCONE]
[21]
  inhibition at 12.5 µg/mL: 61%

## O=C(/C=C/c1ccc(F)cc1F)c1ccc(O)cc1O
Plasmodium falciparum [5]
  IC50: 20 µM

## CC1(C)CCc2c(O)ccc(C(=O)/C=C/c3ccc(O)cc3)c2O1
[22]
  MIC: 2 µg

## CC(C)=CCc1c(O)ccc(C(=O)/C=C/c2ccc(O)cc2)c1O [ISOBAVACHALCONE]
Candida albicans
  IC50: 3 µg/mL (≈ 9.25 µM)
Cryptococcus neoformans
  IC50: 7 µg/mL (≈ 21.6 µM)

## COc1ccc(C(=O)/C=C/c2ccc(N(C)C)cc2)cc1OC
Neutrophil
  IC50: 100 nM
[23]
  IC50: 300 nM

## COc1ccc(C(=O)/C=C/c2ccc(F)cc2F)c(OC)c1
Plasmodium falciparum [5]
  IC50: 6.5 µM

## CC(C)=CCc1cc(C(=O)/C=C/c2ccc(O)cc2)c(O)c(CC=C(C)C)c1O [MEDICAGENIN]
Plasmodium falciparum [24]
  inhibition at 2 µg/mL: 100%

## O=C(/C=C/c1cccc(I)c1)c1ccccc1O
[21]
  inhibition at 12.5 µg/mL: 90%

## COc1c(O)ccc(C(=O)/C=C/c2ccccc2)c1O [LARREIN]
Diaporthe longicolla
  MIC: 6.25 µg/mL (≈ 23.1 µM)
Colletotrichum truncatum [25]
  MIC: 6.25 µg/mL (≈ 23.1 µM)

## C=CC(C)(C)c1cc(/C=C/C(=O)c2ccc(O)cc2)c(OC)cc1O [LICOAGROCHACONE A]
Lactococcus lactis
  MIC: 8 µg/mL (≈ 23.6 µM)
[26]
  MIC: 2 µg/mL (≈ 5.91 µM)
[27]
  IC50: 1.4 mM
[28]
  MIC: 5 µg/mL (≈ 14.8 µM)
Clostridium sporogenes
  MIC: 8 µg/mL (≈ 23.6 µM)
Staphylococcus aureus [12]
  MIC: 3 µg/mL
Plasmodium falciparum [18]
  IC50: 10.3 µM
Plasmodium falciparum [19]
  IC50: 10.3 µM
Bacillus cereus
  MIC: 3 µg/mL (≈ 8.87 µM)
Heyndrickxia coagulans
  MIC: 2 µg/mL (≈ 5.91 µM)
Enterococcus faecium
  MIC: 6 µg/mL
Staphylococcus aureus [29]
  MIC: 6.25 µg/mL (≈ 18.5 µM)
[30]
  IC50: 1.4 mM
Leishmania donovani [20]
  IC50: 650 nM
[31]
  IC50: 14 µM
Mycobacterium kansasii
  MIC: ≤ 20 µg/mL
Staphylococcus aureus [32]
  MIC: 6.25 µg/mL (≈ 18.5 µM)
[33]
  IC50: 460 µM
[34]
  IC50: 1.98 mM
Streptococcus mutans
  MIC: 5 µg/mL (≈ 14.8 µM)
Staphylococcus aureus [35]
  MIC: 16 µg/mL (≈ 47.3 µM)
Bacillus subtilis
  MIC: 2 µg/mL (≈ 5.91 µM)
Staphylococcus aureus [36]
  MIC: 16 µg/mL (≈ 47.3 µM)
Staphylococcus aureus [37]
  MIC: 16 µg/mL (≈ 47.3 µM)
[38]
  IC50: 593 µM
Mycobacterium xenopi
  MIC: ≤ 20 µg/mL
Staphylococcus aureus [39]
  MIC: 3.13 µg/mL (≈ 9.25 µM)
[40]
  MIC: ≤ 20 µg/mL
[41]
  MIC: 5 µg/mL (≈ 14.8 µM)
Helicobacter pylori
  MIC: 25 µg/mL (≈ 73.9 µM)
Leishmania major
  IC50: 4 µM
Mycobacterium marinum
  MIC: ≤ 20 µg/mL
[42]
  IC50: 1.52 mM
Enterococcus faecalis
  MIC: 6 µg/mL (≈ 17.7 µM)

## COc1c(C)c(O)c(C(=O)/C=C(\O)c2ccccc2)c(O)c1C=O
[43]
  EC50: 0.022 µg/mL (≈ 0.067 µM)

## CC1(C)C=Cc2c(ccc(C(=O)/C=C/c3ccc(O)cc3)c2O)O1
Leishmania donovani [44]
  Activity: 74%
Leishmania donovani [45]
  Activity: 84%
